Reference: publication PMC5218480 (PLoS ONE, 2017)

Tested on: MV-4-11 cells
Assay: Gene expression microarray analysis (Affymetrix PrimeView) and GSEA
Type: cell-based, human
Set-up: RFU PODN (11730768_x_at) / Fold change /veh PODN (11730768_x_at) / RFU LINC00158 (11744669_a_at) / Fold change /veh LINC00158 (11744669_a_at) / RFU DUSP10 (11751237_a_at) / Fold change /veh DUSP10 (11751237_a_at) / RFU ID3 (11757404_x_at) / Fold change /veh ID3 (11757404_x_at) / RFU PLEKHG5 (11737974_s_at) / Fold change /veh PLEKHG5 (11737974_s_at) / RFU LRRC4B (11730491_at) / Fold change /veh LRRC4B (11730491_at) / RFU GIMAP4 (11747438_a_at) / Fold change /veh GIMAP4 (11747438_a_at) / RFU KRT8 (11758183_x_at) / Fold change /veh KRT8 (11758183_x_at) / RFU CNN1 (11734310_a_at) / Fold change /veh CNN1 (11734310_a_at) / RFU VPS37D (11726825_at) / Fold change /veh VPS37D (11726825_at) / RFU C10orf10 (11716522_x_at) / Fold change /veh C10orf10 (11716522_x_at) / RFU KIR2DL2 /// KIR2DL4 /// KIR2DL5A /// KIR2DL5B /// KIR2DS1 /// KIR2DS2 /// KIR2DS3 /// KIR2DS4 /// KIR3DL3 /// KIR3DL3 /// KIR3DS1 (11738374_at) / Fold change /veh KIR2DL2 /// KIR2DL4 /// KIR2DL5A /// KIR2DL5B /// KIR2DS1 /// KIR2DS2 /// KIR2DS3 /// KIR2DS4 /// KIR3DL3 /// KIR3DL3 /// KIR3DS1 (11738374_at) / RFU C1QL1 (11718748_at) / Fold change /veh C1QL1 (11718748_at) / RFU TMPRSS4 (11747572_a_at) / Fold change /veh TMPRSS4 (11747572_a_at) / RFU HAMP (11756126_x_at) / Fold change /veh HAMP (11756126_x_at) / RFU RNFT2 (11725882_a_at) / Fold change /veh RNFT2 (11725882_a_at) / RFU NR4A2 (11747474_a_at) / Fold change /veh NR4A2 (11747474_a_at) / RFU ABCC12 (11746883_a_at) / Fold change /veh ABCC12 (11746883_a_at) / RFU TMEM136 (11760407_x_at) / Fold change /veh TMEM136 (11760407_x_at) / RFU CLDN22 /// WWC2 (11732394_at) / Fold change /veh CLDN22 /// WWC2 (11732394_at) / RFU HLA-DPB1 (11760878_x_at) / Fold change /veh HLA-DPB1 (11760878_x_at) / RFU SPINT1 (11716480_a_at) / Fold change /veh SPINT1 (11716480_a_at) / RFU GAP43 (11754022_s_at) / Fold change /veh GAP43 (11754022_s_at) / RFU A4GNT (11735810_at) / Fold change /veh A4GNT (11735810_at) / RFU PRB3 (11715151_x_at) / Fold change /veh PRB3 (11715151_x_at) / RFU TUBB4B (11761932_at) / Fold change /veh TUBB4B (11761932_at) / RFU CAPN14 (11732068_a_at) / Fold change /veh CAPN14 (11732068_a_at) / RFU TMCC2 (11721928_a_at) / Fold change /veh TMCC2 (11721928_a_at) / RFU IRGQ (11745062_a_at) / Fold change /veh IRGQ (11745062_a_at) / RFU FAM174B (11720279_a_at) / Fold change /veh FAM174B (11720279_a_at) / RFU TMPRSS4 (11748680_a_at) / Fold change /veh TMPRSS4 (11748680_a_at) / RFU FAM212B (11763350_a_at) / Fold change /veh FAM212B (11763350_a_at) / RFU PLEKHG5 (11743358_a_at) / Fold change /veh PLEKHG5 (11743358_a_at) / RFU ZSCAN30 (11745921_a_at) / Fold change /veh ZSCAN30 (11745921_a_at) / RFU CMKLR1 (11741424_a_at) / Fold change /veh CMKLR1 (11741424_a_at) / RFU LOC101060620 /// MAPK8IP1 (11723275_at) / Fold change /veh LOC101060620 /// MAPK8IP1 (11723275_at) / RFU SPTSSB (11747773_x_at) / Fold change /veh SPTSSB (11747773_x_at) / RFU PRSS12 (11739890_at) / Fold change /veh PRSS12 (11739890_at) / RFU BIN1 (11741810_x_at) / Fold change /veh BIN1 (11741810_x_at) / RFU WNT11 (11732464_a_at) / Fold change /veh WNT11 (11732464_a_at) / RFU C10orf10 (11716521_a_at) / Fold change /veh C10orf10 (11716521_a_at) / RFU C5orf56 (11738089_at) / Fold change /veh C5orf56 (11738089_at) / RFU CYB561 (11721691_x_at) / Fold change /veh CYB561 (11721691_x_at) / RFU ANKRD19P (11752326_a_at) / Fold change /veh ANKRD19P (11752326_a_at) / RFU OR2T12 /// OR2T33 /// OR2T8 (11738714_s_at) / Fold change /veh OR2T12 /// OR2T33 /// OR2T8 (11738714_s_at) / RFU VCAN (11748164_a_at) / Fold change /veh VCAN (11748164_a_at) / RFU JSRP1 (11732532_at) / Fold change /veh JSRP1 (11732532_at) / RFU KRTAP10-11 (11738290_x_at) / Fold change /veh KRTAP10-11 (11738290_x_at) / RFU MYO3A (11730013_a_at) / Fold change /veh MYO3A (11730013_a_at) / RFU EBF3 (11725865_a_at) / Fold change /veh EBF3 (11725865_a_at) / RFU CAMK2N1 (11719241_x_at) / Fold change /veh CAMK2N1 (11719241_x_at) / RFU C5orf56 (11738088_a_at) / Fold change /veh C5orf56 (11738088_a_at) / RFU OLFML3 (11715873_a_at) / Fold change /veh OLFML3 (11715873_a_at) / RFU LOC100653217 /// NTM (11731650_a_at) / Fold change /veh LOC100653217 /// NTM (11731650_a_at) / RFU MAPK11 (11762145_a_at) / Fold change /veh MAPK11 (11762145_a_at) / RFU FIZ1 (11724087_x_at) / Fold change /veh FIZ1 (11724087_x_at) / RFU OASL (11726364_x_at) / Fold change /veh OASL (11726364_x_at) / RFU SOX15 (11748057_x_at) / Fold change /veh SOX15 (11748057_x_at) / RFU CD79A (11719716_a_at) / Fold change /veh CD79A (11719716_a_at) / RFU HIST1H1D (11736915_at) / Fold change /veh HIST1H1D (11736915_at) / RFU CASKIN2 (11723855_a_at) / Fold change /veh CASKIN2 (11723855_a_at) / RFU LOC730098 (11760151_x_at) / Fold change /veh LOC730098 (11760151_x_at) / RFU OR4N2 (11742367_at) / Fold change /veh OR4N2 (11742367_at) / RFU PRRT2 (11749266_a_at) / Fold change /veh PRRT2 (11749266_a_at) / RFU SNX32 (11753110_a_at) / Fold change /veh SNX32 (11753110_a_at) / RFU CDHR5 (11726645_a_at) / Fold change /veh CDHR5 (11726645_a_at) / RFU RCAN1 (11760418_a_at) / Fold change /veh RCAN1 (11760418_a_at) / RFU FAM167A (11723789_a_at) / Fold change /veh FAM167A (11723789_a_at) / RFU FAM26E (11764081_at) / Fold change /veh FAM26E (11764081_at) / RFU ISYNA1 (11749810_s_at) / Fold change /veh ISYNA1 (11749810_s_at) / RFU ACY1 (11761880_at) / Fold change /veh ACY1 (11761880_at) / RFU 11764098_at / Fold change /veh 11764098_at / RFU SAMD14 (11745864_x_at) / Fold change /veh SAMD14 (11745864_x_at) / RFU NPB (11741838_a_at) / Fold change /veh NPB (11741838_a_at) / RFU TMPRSS6 (11731388_a_at) / Fold change /veh TMPRSS6 (11731388_a_at) / RFU KRTAP10-2 (11738614_at) / Fold change /veh KRTAP10-2 (11738614_at) / RFU ARHGAP8 /// PRR5-ARHGAP8 (11727945_x_at) / Fold change /veh ARHGAP8 /// PRR5-ARHGAP8 (11727945_x_at) / RFU KRTAP5-7 /// NADSYN1 (11734609_at) / Fold change /veh KRTAP5-7 /// NADSYN1 (11734609_at) / RFU RASL12 (11751679_a_at) / Fold change /veh RASL12 (11751679_a_at) / RFU CDKN2B (11736163_a_at) / Fold change /veh CDKN2B (11736163_a_at) / RFU PRF1 (11729649_at) / Fold change /veh PRF1 (11729649_at) / RFU, ZNF638 /// ZNF638-IT1 / Fold change vs veh, ZNF638 /// ZNF638-IT1 / RFU, PANK3 / Fold change vs veh, PANK3 / RFU, SH3YL1 / Fold change vs veh, SH3YL1 / RFU, ZEB2 / Fold change vs veh, ZEB2 / RFU, NRIP1 / Fold change vs veh, NRIP1 / RFU, PTTG1IP / Fold change vs veh, PTTG1IP / RFU, CAPN2 / Fold change vs veh, CAPN2 / RFU, MED14 / Fold change vs veh, MED14 / RFU, SNORA58 / Fold change vs veh, SNORA58 / RFU, C1orf63 / Fold change vs veh, C1orf63 / RFU, LRRFIP1 / Fold change vs veh, LRRFIP1 / RFU, NDUFAF7 / Fold change vs veh, NDUFAF7 / RFU, SLC12A2 / Fold change vs veh, SLC12A2 / RFU, IBTK / Fold change vs veh, IBTK / RFU, ESF1 / Fold change vs veh, ESF1 / Fold change vs veh, TMEM50B / RFU, TAOK1 / Fold change vs veh, TAOK1 / RFU, ACBD3 / Fold change vs veh, ACBD3 / RFU, TMA16 / Fold change vs veh, TMA16 / RFU, RWDD3 / Fold change vs veh, RWDD3 / RFU, BCAT1 / Fold change vs veh, BCAT1 / RFU, EDEM3 / Fold change vs veh, EDEM3 / RFU, TMEM33 / Fold change vs veh, TMEM33 / RFU, WDR75 / Fold change vs veh, WDR75 / RFU, AHCTF1 / Fold change vs veh, AHCTF1 / RFU, TFRC / Fold change vs veh, TFRC / RFU, ZDHHC17 / Fold change vs veh, ZDHHC17 / RFU, NOM1 / Fold change vs veh, NOM1 / RFU, ARL8B / Fold change vs veh, ARL8B / RFU, ZBTB11 / Fold change vs veh, ZBTB11 / RFU, TAMM41 / Fold change vs veh, TAMM41 / RFU, KIAA1704 /// LOC100996395 / Fold change vs veh, KIAA1704 /// LOC100996395 / RFU, ING1 / Fold change vs veh, ING1 / RFU, TRMT61B / Fold change vs veh, TRMT61B / RFU, FUBP3 / Fold change vs veh, FUBP3 / RFU, TP53 / Fold change vs veh, TP53 / RFU, TNKS2 / Fold change vs veh, TNKS2 / RFU, ZFP14 / Fold change vs veh, ZFP14 / RFU, ACTR2 / Fold change vs veh, ACTR2 / RFU, PPP3R1 / Fold change vs veh, PPP3R1 / RFU, PIK3R1 / Fold change vs veh, PIK3R1 / RFU, HNRNPA1 / Fold change vs veh, HNRNPA1 / RFU, RNF170 / Fold change vs veh, RNF170 / RFU, ZNF28 / Fold change vs veh, ZNF28 / RFU, RNGTT / Fold change vs veh, RNGTT / RFU, OGT / Fold change vs veh, OGT / RFU, BRD1 / Fold change vs veh, BRD1 / RFU, MARS / Fold change vs veh, MARS / RFU, ZNF655 / Fold change vs veh, ZNF655 / RFU, FAHD1 / Fold change vs veh, FAHD1 / RFU, BDP1 / Fold change vs veh, BDP1 / RFU, LRRCC1 / Fold change vs veh, LRRCC1 / RFU, ARID1A / Fold change vs veh, ARID1A / RFU, ZNF146 / Fold change vs veh, ZNF146 / RFU, ZNF330 / Fold change vs veh, ZNF330 / RFU, GPN3 / Fold change vs veh, GPN3 / RFU, C9orf123 / Fold change vs veh, C9orf123 / RFU, N4BP2L2 / Fold change vs veh, N4BP2L2 / RFU, ARFIP1 / Fold change vs veh, ARFIP1 / RFU, FAM179B / Fold change vs veh, FAM179B / RFU, BCL10 / Fold change vs veh, BCL10 / RFU, UHRF1BP1L / Fold change vs veh, UHRF1BP1L / RFU, BET1 / Fold change vs veh, BET1 / RFU, CNOT2 / Fold change vs veh, CNOT2 / RFU, ZNF268 / Fold change vs veh, ZNF268 / Fold change vs veh, ZNF507 / RFU, DGCR2 / Fold change vs veh, DGCR2 / RFU, WDSUB1 / Fold change vs veh, WDSUB1 / Fold change vs veh, HSP90B1 /// MIR3652 / RFU, ADSS / Fold change vs veh, ADSS / RFU, GK / Fold change vs veh, GK / RFU, ZNF148 / Fold change vs veh, ZNF148 / RFU, TAF9 / Fold change vs veh, TAF9 / RFU, SLC1A5 / Fold change vs veh, SLC1A5 / RFU, SLMO2 / Fold change vs veh, SLMO2 / RFU, ABCC4 / Fold change vs veh, ABCC4 / RFU, LOC101060439 /// RAP1B / Fold change vs veh, LOC101060439 /// RAP1B / RFU, RFX7 / Fold change vs veh, RFX7 / RFU, GTPBP10 / Fold change vs veh, GTPBP10 / RFU, CNEP1R1 / Fold change vs veh, CNEP1R1 / RFU, BIVM-ERCC5 /// ERCC5 / Fold change vs veh, BIVM-ERCC5 /// ERCC5 / RFU, ILF3 / Fold change vs veh, ILF3 / RFU 11762660_at / Fold change /veh 11762660_at / RFU VCAN (11757783_s_at) / Fold change /veh VCAN (11757783_s_at) / RFU DDX43 (11728927_at) / Fold change /veh DDX43 (11728927_at) / RFU KRT8 (11758188_x_at) / Fold change /veh KRT8 (11758188_x_at) / RFU NKD1 (11759106_at) / Fold change /veh NKD1 (11759106_at) / RFU SRD5A1 (11742802_a_at) / Fold change /veh SRD5A1 (11742802_a_at) / RFU TPSAB1 /// TPSB2 (11721975_s_at) / Fold change /veh TPSAB1 /// TPSB2 (11721975_s_at) / RFU GSTM3 (11746129_a_at) / Fold change /veh GSTM3 (11746129_a_at) / RFU IL23R (11737362_x_at) / Fold change /veh IL23R (11737362_x_at) / RFU TMEM51 (11727254_a_at) / Fold change /veh TMEM51 (11727254_a_at) / RFU PIWIL2 (11732686_x_at) / Fold change /veh PIWIL2 (11732686_x_at) / RFU ORM1 (11744905_x_at) / Fold change /veh ORM1 (11744905_x_at) / RFU CCDC152 (11743942_at) / Fold change /veh CCDC152 (11743942_at) / RFU ECM1 (11717891_a_at) / Fold change /veh ECM1 (11717891_a_at) / RFU IL23R (11748794_a_at) / Fold change /veh IL23R (11748794_a_at) / RFU TNFAIP8L3 (11732012_x_at) / Fold change /veh TNFAIP8L3 (11732012_x_at) / RFU MBOAT4 (11741988_at) / Fold change /veh MBOAT4 (11741988_at) / RFU 11764193_at / Fold change /veh 11764193_at / RFU TMEM53 (11763286_at) / Fold change /veh TMEM53 (11763286_at) / RFU MAGEB2 (11727129_at) / Fold change /veh MAGEB2 (11727129_at) / RFU TMEM200A (11744735_a_at) / Fold change /veh TMEM200A (11744735_a_at) / RFU CCDC152 (11751479_a_at) / Fold change /veh CCDC152 (11751479_a_at) / RFU FAM211A (11726209_a_at) / Fold change /veh FAM211A (11726209_a_at) / RFU RGS16 (11746705_a_at) / Fold change /veh RGS16 (11746705_a_at) / RFU VCAN (11755009_s_at) / Fold change /veh VCAN (11755009_s_at) / RFU RHOB (11743442_s_at) / Fold change /veh RHOB (11743442_s_at) / RFU RGS16 (11720943_a_at) / Fold change /veh RGS16 (11720943_a_at) / RFU RGS16 (11720944_at) / Fold change /veh RGS16 (11720944_at) / RFU, VPS4B / Fold change vs veh, VPS4B / RFU, CREB1 / Fold change vs veh, CREB1 / RFU, DNAJC13 / Fold change vs veh, DNAJC13 / RFU, GNAQ / Fold change vs veh, GNAQ / RFU, CDK5R1 / Fold change vs veh, CDK5R1 / RFU, ZRANB3 / Fold change vs veh, ZRANB3 / RFU, CUL4A / Fold change vs veh, CUL4A / RFU, CCNY / Fold change vs veh, CCNY / RFU, UFL1 / Fold change vs veh, UFL1 / RFU, COG3 / Fold change vs veh, COG3 / RFU, DIAPH2 / Fold change vs veh, DIAPH2 / RFU, SKA2 / Fold change vs veh, SKA2 / RFU, AFF3 / Fold change vs veh, AFF3 / RFU, LMF1 / Fold change vs veh, LMF1 / RFU, IPO11 / Fold change vs veh, IPO11 / RFU, DFFB / Fold change vs veh, DFFB / RFU, FOXP1 / Fold change vs veh, FOXP1 / RFU, CARD8 / Fold change vs veh, CARD8 / RFU, STRN3 / Fold change vs veh, STRN3 / RFU, ADK / Fold change vs veh, ADK / RFU, RASSF2 / Fold change vs veh, RASSF2 / RFU, WIPF1 / Fold change vs veh, WIPF1 / RFU, LARP1B / Fold change vs veh, LARP1B / RFU, RASA1 / Fold change vs veh, RASA1 / RFU, RB1 / Fold change vs veh, RB1 / RFU, PPFIA1 / Fold change vs veh, PPFIA1 / RFU, MAT2A / Fold change vs veh, MAT2A / RFU, CCT5 / Fold change vs veh, CCT5 / RFU, WDR92 / Fold change vs veh, WDR92 / RFU, CUX1 / Fold change vs veh, CUX1 / RFU, TTC7A / Fold change vs veh, TTC7A / RFU, TMEM135 / Fold change vs veh, TMEM135 / RFU, DEPTOR / Fold change vs veh, DEPTOR / RFU, CPM / Fold change vs veh, CPM / RFU, DNAJB6 / Fold change vs veh, DNAJB6 / RFU, CACNA2D3 / Fold change vs veh, CACNA2D3 / RFU, DTX4 / Fold change vs veh, DTX4 / RFU, TFCP2 / Fold change vs veh, TFCP2 / RFU, GMCL1 /// GMCL1P1 / Fold change vs veh, GMCL1 /// GMCL1P1 / RFU, AEBP2 / Fold change vs veh, AEBP2 / RFU, SNHG1 /// SNORD22 /// SNORD25 /// SNORD26 /// SNORD27 /// SNORD28 /// SNORD29 /// SNORD31 / Fold change vs veh, SNHG1 /// SNORD22 /// SNORD25 /// SNORD26 /// SNORD27 /// SNORD28 /// SNORD29 /// SNORD31 / Fold change (Aza/veh), C12orf56 (ProbeSet 11735607_a_at) / Fold change (ACY-1035/veh), C12orf56 (ProbeSet 11735607_a_at) / Fold change (Aza/veh), FGFR1OP (ProbeSet 11751329_s_at) / Fold change (ACY-1035/veh), FGFR1OP (ProbeSet 11751329_s_at) / Fold change (Aza/veh), VPS36 (ProbeSet 11739960_a_at) / Fold change (ACY-1035/veh), VPS36 (ProbeSet 11739960_a_at) / RFU SYPL1 (11715823_x_at) / Fold change /veh SYPL1 (11715823_x_at) / RFU IGFBP7 (11715501_s_at) / Fold change /veh IGFBP7 (11715501_s_at) / RFU REEP3 (11722064_at) / Fold change /veh REEP3 (11722064_at) / RFU IGLL1 (11728026_x_at) / Fold change /veh IGLL1 (11728026_x_at): dose or concentration left out as unconfirmed
Conditions: ProbeSet 11743362_s_at; LIST B

Nc1ccc(-c2cccs2)cc1NC(=O)c1ccc2c(c1)cc(C1CC1)n2CCN1CCOCC1 [ACY-1035]
Fold change vs veh, ADSS: 0.95
